Test results as given in patent publication US20110060048A1, “Removing alcohol in vivo through esterification” (priority 2009, published 2011).
Read-outs that look alike come from different tables or passages of the source.

Columns and labels:
[1] = for C2H5OH % Decrease at Equilibrium, Trial 2 / C2H5OH % Decrease at Equilibrium, Trial 3 / C2H5OH % Decrease at Equilibrium, Trial 4 / C2H5OH % Decrease at Equilibrium, Trial 5 / C2H5OH % Decrease at Equilibrium, Average / C2H5OH % Decrease at Equilibrium, Trial 1: equal acetic acid
Description: Titrations with potassium permanganate (KMnO4) were later performed after the contents of each beaker received 5 minutes each of vigorous stirring and 25 minutes of inactivity to compare the final amount of ethanol left with the original amount.
In the following we describe the detailed procedure of in vitro experiment to verify the validity of reducing the amount of ethanol by esterification: • 1. Label four 100-mL beakers, 0.4 M, 0.6 M, 0.8 M, and 1.0 M. • 2. Put 17.15 mL of distilled water into each. • 3. Add 0.4 mL of concentrated ethanol to the first beaker, 0.6 mL to the second, 0.8 mL to the third, and 1.0 mL to the fourth. Swivel each beaker gently for 20-30 seconds to ensure mixing. See calculations below for explanation. • 4. Add another 17.15 mL of water to each beaker • 5. […] See calculations below for explanation. • 6. Stir each sample vigorously for five minutes in succession. […] Put on latex gloves before handling potassium permanganate. • 8. Set up two burettes, and fill each with approximately 100 mL of 0.2 M potassium permanganate. This will enable two titrations to be simultaneously done. • 9. Record the initial volume of potassium permanganate present in both burettes. • 10. Place 1.0 M and 0.8 M beakers on hot plate, and turn to power level 3. Heating quickens the titration process. • 11. Slowly drip KMnO4 into beakers while stirring. Make sure that each beaker is consistently titrated with the same burette to ensure that the exact volumes of KMnO4 that each beaker received can be easily calculated. • 12. Potassium permanganate is purple in color. When reacted with ethanol, a brown color (manganese oxide, MnO2) appears. The reaction is as follows:
When potassium permanganate ceases to be converted into manganese oxide, and the purple color stays, the titration is finished. There is no ethanol left in the beaker to react with potassium permanganate. • 13. Remove both beakers from hot plate. Measure the volume of potassium permanganate remaining in each burette. Subtract from the original volumes to find the volume of KMnO4 consumed in each reaction. • 14. Repeat steps 9-13 for the 0.6 M and 0.4 M beakers. • 15. Use stoichiometry to calculate the molar amount of 0.2 M potassium permanganate used in each titration. • 16. Ethanol and potassium permanganate react in a 3:4 molar ratio, according to the equation 3C2H5OH+4KMnO4→3CH3COOH+4MnO2+4KOH+H2O.
Again, use a chain calculation to calculate the molar amount of ethanol remaining in each beaker, then divide by […] to convert to molarity. Compare to the molarity of ethanol originally in each beaker. Calculate % error. • 17. Results (see Table 2)

[2] = eight male volunteers, alcoholic beverage followed by 30 grams of fructose or sucrose, hourly measurements; cited from earlier work

CC(=O)O [acetic acid]
decrease in the amount of ethanol when the system reaches equilibrium ([1]; 0.4-1.0 M ethanol with same volume and concentration of acetic acid): 79-86% | reduction of the ethanol amount ([1]; equal molar number of acetic acid added to the ethanol solution, 5 repeats): 80-90% | C2H5OH % Decrease at Equilibrium, Trial 2 ([1]; initial C2H5OH 0.4 M): 78.1% | C2H5OH % Decrease at Equilibrium, Trial 3 ([1]; initial C2H5OH 0.4 M): 81.5% | C2H5OH % Decrease at Equilibrium, Trial 4 ([1]; initial C2H5OH 0.4 M): 81.2% | C2H5OH % Decrease at Equilibrium, Trial 5 ([1]; initial C2H5OH 0.4 M): 80.0% | C2H5OH % Decrease at Equilibrium, Average ([1]; initial C2H5OH 0.4 M, average of trials): 80.2% | C2H5OH % Decrease at Equilibrium, Trial 2 ([1]; initial C2H5OH 0.6 M): 82.7% | C2H5OH % Decrease at Equilibrium, Trial 3 ([1]; initial C2H5OH 0.6 M): 83.8% | C2H5OH % Decrease at Equilibrium, Trial 4 ([1]; initial C2H5OH 0.6 M): 83.7% | C2H5OH % Decrease at Equilibrium, Trial 5 ([1]; initial C2H5OH 0.6 M): 82.5% | C2H5OH % Decrease at Equilibrium, Average ([1]; initial C2H5OH 0.6 M, average of trials): 83.2% | C2H5OH % Decrease at Equilibrium, Trial 1 ([1]; initial C2H5OH 0.8 M): 89.1% | C2H5OH % Decrease at Equilibrium, Trial 2 ([1]; initial C2H5OH 0.8 M): 86.2% | C2H5OH % Decrease at Equilibrium, Trial 3 ([1]; initial C2H5OH 0.8 M): 84.7% | C2H5OH % Decrease at Equilibrium, Trial 4 ([1]; initial C2H5OH 0.8 M): 84.6% | C2H5OH % Decrease at Equilibrium, Trial 5 ([1]; initial C2H5OH 0.8 M): 85.5% | C2H5OH % Decrease at Equilibrium, Average ([1]; initial C2H5OH 0.8 M, average of 5 trials): 86.0% | C2H5OH % Decrease at Equilibrium, Trial 1 ([1]; initial C2H5OH 1.0 M): 91.3% | C2H5OH % Decrease at Equilibrium, Trial 2 ([1]; initial C2H5OH 1.0 M): 88.8% | C2H5OH % Decrease at Equilibrium, Trial 3 ([1]; initial C2H5OH 1.0 M): 86.5% | C2H5OH % Decrease at Equilibrium, Trial 4 ([1]; initial C2H5OH 1.0 M): 91.1% | C2H5OH % Decrease at Equilibrium, Trial 5 ([1]; initial C2H5OH 1.0 M): 90.4% | C2H5OH % Decrease at Equilibrium, Average ([1]; initial C2H5OH 1.0 M, average of 5 trials): 89.6%

O=C(CO)[C@@H](O)[C@H](O)[C@H](O)CO [fructose]
percent of ethanol decrease (plateau, on average) [2]: 29%

OC[C@H]1O[C@@](CO)(O[C@H]2O[C@H](CO)[C@@H](O)[C@H](O)[C@H]2O)[C@@H](O)[C@@H]1O [sucrose]
percent of ethanol decrease (plateau, on average) [2]: 29%
